These compounds were tested against T1, Vanilloid receptor (Rattus norvegicus, UniProt Q9ERZ8+Q9WUD2+O35433) (assay: In vitro inhibitory concentration was determined against [45Ca2+]- influx in rat DRG neurons).
Assay type: functional
Work on `NC(=O)N1CCN(c2ccccn2)CC1` yielded an IC50 of 30 nM. Work on `CC(C)(C)C(=O)OCc1cc(C(C)(C)C)ccc1C/N=C(\S)NCc1ccc(NS(C)(=O)=O)c(F)c1` yielded an IC50 of 15 nM. Work on `CCCCOc1cc(C(C)(C)C)ccc1C/N=C(\S)NCc1ccc(NS(C)(=O)=O)c(F)c1` yielded an IC50 of 20 nM. For `CCCCOc1cc(C(C)(C)C)ccc1C/N=C(\S)NCc1ccc(NS(C)(=O)=O)cc1`, the IC50 was 60 nM. For `CC(C)(C)COc1cc(C(C)(C)C)ccc1C/N=C(\S)NCc1ccc(NS(C)(=O)=O)c(F)c1`, the IC50 was 66 nM. Compound `N/C(S)=N/N1CCCC1` has an IC50 of 3000 nM. Work on `C=C(C)[C@]12C[C@@H](C)[C@@]34O[C@](Cc5ccccc5)(O[C@@H]1[C@@H]3C=C(COC(=O)Cc1cc(I)c(O)c(OC)c1)C[C@]1(O)C(=O)C(C)=C[C@@H]41)O2` [IODORESINIFERATOXIN] yielded an IC50 of 4000 nM. With `CCCCCOc1cc(C(C)(C)C)ccc1C/N=C(\S)NCc1ccc(NS(C)(=O)=O)cc1` the IC50 was 70 nM. With `CC(C)(C)C(=O)Oc1cc(C(C)(C)C)ccc1C/N=C(\S)NCc1ccc(NS(C)(=O)=O)cc1` the IC50 was 220 nM. `CC(C)Oc1cc(C(C)(C)C)ccc1C/N=C(\S)NCc1ccc(NS(C)(=O)=O)cc1` showed an IC50 of 350 nM. `CC(C)(C)COc1cc(C(C)(C)C)ccc1C/N=C(\S)NCc1ccc(NS(C)(=O)=O)cc1` was tested, and the IC50 was 60 nM. For `COc1cc(CC/N=C(\S)NCCc2ccccc2)ccc1O`, the IC50 was 320 nM. `CC(C)(C)C(=O)OCc1cc(C(C)(C)C)ccc1C/N=C(\S)NCc1ccc(NS(C)(=O)=O)cc1` gave an IC50 of 70 nM. Work on `CCCNCC(=O)N(CCC)CC(=O)N(CCC)CC(=O)O` yielded an IC50 of 2000 nM. For `COCCOc1cc(C(C)(C)C)ccc1C/N=C(\S)NCc1ccc(NS(C)(=O)=O)cc1`, the IC50 was 60 nM. Work on `COc1cc(C(C)(C)C)ccc1C/N=C(\S)NCc1ccc(NS(C)(=O)=O)cc1` yielded an IC50 of 2400 nM. Work on `Cc1cc(CN/C(S)=N/Cc2ccc(NS(C)(=O)=O)cc2)c(COC(=O)C(C)(C)C)cc1C` yielded an IC50 of 70 nM. `COCOc1cc(C(C)(C)C)ccc1C/N=C(\S)NCc1ccc(NS(C)(=O)=O)cc1` was tested, and the IC50 was 500 nM. `CCCCCCOc1cc(C(C)(C)C)ccc1C/N=C(\S)NCc1ccc(NS(C)(=O)=O)cc1` gave an IC50 of 150 nM. With `CC(=O)OCc1cc(C(C)(C)C)ccc1C/N=C(\S)NCc1ccc(NS(C)(=O)=O)cc1` the IC50 was 580 nM. For `CCCOc1cc(C(C)(C)C)ccc1C/N=C(\S)NCc1ccc(NS(C)(=O)=O)cc1`, the IC50 was 250 nM. Compound `CC(C)(C)c1ccc(C/N=C(\S)NCc2ccc(NS(C)(=O)=O)cc2)c(OCc2ccccc2)c1` has an IC50 of 770 nM. `CCOc1cc(C(C)(C)C)ccc1C/N=C(\S)NCc1ccc(NS(C)(=O)=O)cc1` showed an IC50 of 1100 nM.

These compounds were tested against T1, Vanilloid receptor (assay: In vitro induction of 45 [Ca2+] influx in rat DRG neurons (ineffective at 30 uM, partial activity)).
Assay type: functional
`CC(C)(C)C(=O)OCc1cc(C(C)(C)C)ccc1C/N=C(\S)NCc1ccc(NS(C)(=O)=O)c(F)c1` was tested, and the EC50 was “Partially active”. With `CCCCOc1cc(C(C)(C)C)ccc1C/N=C(\S)NCc1ccc(NS(C)(=O)=O)c(F)c1` the EC50 was “Partially active”. `CC(C)(C)COc1cc(C(C)(C)C)ccc1C/N=C(\S)NCc1ccc(NS(C)(=O)=O)c(F)c1` was tested, and the EC50 was “Partially active”. In the case of `CC(C)(C)c1ccc(CNC(=S)NCc2ccc(NS(C)(=O)=O)c(F)c2)cc1`, the EC50 is reported as “Partially active”.
